Measured values taken from patent publication EP0211354A2, “Nucleosides and their use as antineoplastic agents” (MERRELL DOW PHARMACEUTICALS INC., priority 1985, dated 1987).
Marks after values point to notes of the source that are not given here.

Assays:
Hela Cells = assay: Growth of Hela cells in culture (cell count after 72 hours); type: cell-based
Experimental: Hela cells (1 × 10⁵/35 mm dish) were plated and incubated at 37°C in a CO₂ (5%) incubator. Media containing different dilutions of MDL 27,069 were added after overnight incubation. At the end of 72 hours, the cells were collected by trypsinization and counted using a coulter counter. *All cells were killed.

L1210 mouse leukemia = assay: Antitumor activity against L1210 mouse leukemia (survival time); type: in vivo; conditions: for CURES: cured = surviving more than 30 days
Experimental: 1 × 10⁵ L1210 leukemia cells per animal were injected i.p. on day 0. Treatment with the drug was started on day 1. The compound was dissolved in sterile water and administered i.p. at the doses indicated from day 1 to day 9 once daily. Therapeutic effect of the compound was determined by determining the survival time of the treated group in comparison with control group as follows: [formula] *Animals surviving for more than 30 days are considered cured.

[1] = 0,01 mg/kg i.p. once daily day 1 to day 9
[2] = 0.25 mg/kg i.p. once daily day 1 to day 9
[3] = 0.5 mg/kg i.p. once daily day 1 to day 9
[4] = 1.0 mg/kg i.p. once daily day 1 to day 9

**Q.** With Nc1ccn([C@@H]2O[C@H](CO)[C@@H](O)C2(F)F)c(=O)n1 [MDL 27,069, 2'-desoxy-2',2'-difluorocytidine] as the compound, how does the “Cell Number” value (Hela Cells; 0.00062 μg/ml) read?
**A.** Its value is 2.0 X10^5.

**Q.** What about the “Cell Number” value (Hela Cells; 0.00125 μg/ml) of the same compound?
**A.** Its value is 1.17 X10^5.

**Q.** And the “Cell Number” value (Hela Cells; 0.0025 μg/ml)?
**A.** The value was 0.51 X10^5.

**Q.** What about the “Cell Number” value (Hela Cells; 0.005 μg/ml) of the same compound?
**A.** Its value is 0.36 X10^5.

**Q.** What about the “Cell Number” value (Hela Cells; 0.01 μg/ml, *All cells were killed) of the same compound?
**A.** Its value is 0* X10^5.

**Q.** What about the inhibition at 0.00062 µg/mL (Hela Cells; Homo sapiens, 0.00062 μg/ml) of the same compound?
**A.** The inhibition at 0.00062 µg/mL was 48%.

**Q.** And the inhibition at 0.00125 µg/mL (Hela Cells; Homo sapiens, 0.00125 μg/ml)?
**A.** The inhibition at 0.00125 µg/mL was 70%.

**Q.** What about the inhibition at 0.0025 µg/mL (Hela Cells; Homo sapiens, 0.0025 μg/ml) of the same compound?
**A.** Its inhibition at 0.0025 µg/mL is 87%.

**Q.** And the inhibition at 0.005 µg/mL (Hela Cells; Homo sapiens, 0.005 μg/ml)?
**A.** The inhibition at 0.005 µg/mL was 91%.

**Q.** What about the inhibition at 0.01 µg/mL (Hela Cells; Homo sapiens, 0.01 μg/ml) of the same compound?
**A.** Its inhibition at 0.01 µg/mL is 100%.

**Q.** And the “MEAN SURVIVAL TIME” value (L1210 mouse leukemia; [1])?
**A.** Its value is 13.25 days.

**Q.** What about the “o/o T/C” value (L1210 mouse leukemia; [1]) of the same compound?
**A.** Its value is 189 o/o.

**Q.** What about the CURES (L1210 mouse leukemia; [1]) of the same compound?
**A.** Its CURES is 0/5.

**Q.** And the “MEAN SURVIVAL TIME” value (L1210 mouse leukemia; [2])?
**A.** Its value is 13.40 days.

**Q.** What about the “o/o T/C” value (L1210 mouse leukemia; [2]) of the same compound?
**A.** Its value is 191 o/o.

**Q.** What about the CURES (L1210 mouse leukemia; [2]) of the same compound?
**A.** Its CURES is 0/5.

**Q.** And the “o/o T/C” value (L1210 mouse leukemia; [3])?
**A.** Its value is 249 o/o.

**Q.** And the CURES (L1210 mouse leukemia; [3])?
**A.** The CURES was 0/5.

**Q.** What about the “MEAN SURVIVAL TIME” value (L1210 mouse leukemia; [4]) of the same compound?
**A.** The value was 20.0 days.

**Q.** What about the “o/o T/C” value (L1210 mouse leukemia; [4]) of the same compound?
**A.** Its value is 286 o/o.

**Q.** And the CURES (L1210 mouse leukemia; [4])?
**A.** Its CURES is 2/5*.
